Experimental data reported in US20220211876A1, “LESION DETECTION METHOD” (MIE UNIVERSITY, priority 2019, published 2022).
Entries after “also recorded” stand apart in the source; their conditions may differ.

Key:
[1] = test system: olfactory receptor neurons; test: Vital staining by coating onto nasal mucosa, laser microscope; assay type: in vivo, mouse; conditions: coating on nasal mucosa
Excerpt: FIG. 26 is a diagram showing, at high magnification, examples of visualization with a multiphoton laser microscope of olfactory receptor neurons, which are odor sensory cells, after vital staining by coating curcumin onto nasal mucosa of a mouse. […] Since a nucleus is not stained, it is viewed as a black negative image. By coating curcumin on nasal mucosa, olfactory receptor neuronal cells, which are odor sensing cells, can be visualized. Accordingly, olfactory disorders can be examined.

taste bud = test: Vital staining by coating onto tongue mucosa, laser microscope; assay type: in vivo, mouse; conditions: coating on tongue mucosa
Excerpt: FIG. 20 is a diagram showing, at high magnification, an example of visualization with a multiphoton laser microscope of a taste bud, which is a taste sensory device, after vital staining by coating curcumin onto tongue mucosa of a mouse. FIG. 20 to FIG. 22 are diagrams in which a taste bud, a taste sensory device, is visualized by a laser microscope after vital staining by coating curcumin on mouse tongue mucosa. FIG. 20 and FIG. 21 further show hematoxylin-eosin staining images of taste buds. The nuclei of sensory neuronal cells are not stained with curcumin, so that they are recognized as black negative images. By coating curcumin on oral mucosa, the neuronal cells of a taste bud, which is a taste sensory device, can be visualized. Accordingly, taste disorders can be examined in otolaryngologic field.

[2] = test system: large intestine of a mouse (normal mucosal tissue); test: Vital staining of normal mouse large intestine, imaging with multiphoton or confocal laser microscope; assay type: in vivo; conditions: for structures stained in double staining: curcumin and Red #106 from lumen side, FIG. 4
Protocol: (§1) 100 mg of curcumin (Tokyo Kasei, cat. #C2302, purity 97.0%) was suspended in 5 mL of ethanol, and further diluted 10-fold with ethanol. It was mixed with the same amount of glycerin, and further diluted 10-fold with glycerin. The mixture was mixed with the same amount of purified water to obtain a staining solution of curcumin. Regarding Red #106, its staining solution is obtained by dissolving the powder in saline to achieve a concentration of 1 mg/mL.
(§2) C57BL/6N mice purchased from Japan SLC, Inc. were used in the tests. All tests were performed on male, 8-week-old mice weighing 20˜25 grams.
(§3) A multiphoton laser microscope of FVMPE-RS (Olympus) was used with the irradiation wavelength of 800 nm, wherein the laser irradiation was performed at 5.8˜48.2% of its full power output. A confocal laser microscope of FV1000 (Olympus) was used with the irradiation wavelength of 488 nm and 594 nm, wherein the laser irradiation at 488 nm was performed at 15˜29.4% of its full power output, and the laser irradiation at 594 nm was performed at 13˜13.5% of its full power output.

[3] = test system: large intestine (cancer tumor site) of a colon cancer mouse; test: Vital staining of the cancer tumor site of a colon cancer mouse, laser microscope imaging; assay type: in vivo
Protocol: as §1, §2
Model mice with colon cancer were prepared by intraperitoneally administering 10 mg/kg of azoxymethane (AOM) dissolved in saline 4 times at weekly intervals to the C57BL/6N mice.
as §3

[4] = Fluorescent color by laser irradiation; assay type: physicochemical
Excerpt: Regarding staining an organ tissue, the object in the organ to be visualized differs depending on the staining agent used. For example, curcumin and Red #3 are suitable for staining epithelial and glandular cells, as well as cancerous cells derived from them. On the other hand, Red #106 is suitable for staining connective tissue and capillaries. By laser irradiation, curcumin gives a green fluorescent color, while Red #3 and Red #106 give a red fluorescent color. Therefore, double staining with curcumin and Red #106 makes it easier to identify structure of cells in tissue by superimposing stained images. Accordingly, micro cancer tissue with diameter of about 1 mm and invasive cancer cell groups can be detected.
as §3

[5] = test system: nerve fibers (myelin sheath); test: Vital staining of nerve fibers, multiphoton laser microscope; assay type: in vivo, mouse; conditions: intraperitoneal administration, FIG. 25
Excerpt: FIG. 25 is a diagram showing, at high magnification, examples of visualization with a laser multiphoton microscope of olfactory nerve fibers after vital staining by intraperitoneal administration of curcumin to a mouse.

[6] = test system: optic nerve and optic ganglion cells of retina; test: Vital staining of retina by intraperitoneal administration, laser microscope; assay type: in vivo, mouse; conditions: curcumin vital staining
Excerpt: FIG. 38 is a diagram of visualization of optic nerves and the optic ganglion cells of retina in vivo after vital staining by intraperitoneal administration of sulforhodamine 101 and curcumin to a mouse. (A) is a diagram of visualization of blood vessels fluorescently labeled with sulforhodamine 101 and a bundle of optic nerve fluorescence-labeled with curcumin. […] In an embodiment of the present invention, the nerve cell layer of retina can be visualized by vital staining with curcumin (FIG. 37). According to FIG. 37, it can be seen that in the layer structure of retina, the cell layer of optic ganglion, inner plexiform layer, bipolar cell layer, outer plexiform layer, and outer nuclear layer can be identified. It can be seen that the blood vessel travel and the optic nerve bundle in retina can be visualized at the same time by double staining with blood vessel staining dye (sulforhodamine 101) and curcumin (FIG. 38A). […] Accordingly, the present invention is very useful for detecting retinal diseases.

STAT3 = molecular target: T1, STAT3 (Homo sapiens, UniProt P40763); test: Staining of cells that overexpress a cancer-related gene product (STAT3); assay type: cell-based
T1 construct: endogenous in cells
Excerpt: For the visualization of expression patterns of cancer-related genes in living cells, the inventors stained a cancer-related gene product to chromatic color using staining agents containing edible dyes and photographed. An edible dye is a natural or artificial dye which has been permitted to be administered to human (For example, a dye for food coloring, or a dye that can be taken as supplements).
Specifically, a staining agent containing curcumins (C21H20O6) can be used to selectively stain a STAT3-based cancer-related gene product. In addition, a staining agent containing Red #3 (erythrosine) can be used to selectively stain the expression pattern of ras-based cancer-related gene.
More specifically, as a staining agent containing curcumins, a solution containing 1% by weight of curcumin was prepared. As a staining agent containing Red #3, a solution containing 1% by weight of phloxine was prepared. […]
When a staining agent containing curcumins is used, the expression of a STAT3-based cancer-related gene product in living cells can be visualized by staining. […] Accordingly, the nucleus surrounded by the cytoplasm is clearly visualized, making it clearer to be analyzed.

[7] = test system: Auerbach's plexus in large intestine; test: Curcumin staining of freshly resected colon of a patient with Hirschsprung-like disease, multiphoton laser microscope; design: species or system human
Protocol: In an embodiment of the present invention, curcumin was administered to a freshly resected colon from a patient with Hirschsprung-like disease, and then a multiphoton laser microscope was used to visualize Auerbach's plexus. […] (FIG. 39). Therefore, intraoperative rapid diagnosis by a multiphoton laser microscope of freshly resected large intestine of a patient with Hirschsprung-like disease can be performed and appropriate surgical resection sites can be confirmed.

RAS = test: Staining of cells that overexpress a cancer-related gene product (RAS); assay type: cell-based
Excerpt: For the visualization of expression patterns of cancer-related genes in living cells, the inventors stained a cancer-related gene product to chromatic color using staining agents containing edible dyes and photographed. An edible dye is a natural or artificial dye which has been permitted to be administered to human (For example, a dye for food coloring, or a dye that can be taken as supplements). Specifically, a staining agent containing curcumins (C21H20O6) can be used to selectively stain a STAT3-based cancer-related gene product. In addition, a staining agent containing Red #3 (erythrosine) can be used to selectively stain the expression pattern of ras-based cancer-related gene. More specifically, as a staining agent containing curcumins, a solution containing 1% by weight of curcumin was prepared. As a staining agent containing Red #3, a solution containing 1% by weight of […] was prepared. As a staining agent containing curcumins, a curcumin solution 5˜100-fold diluted from its stock solution (for example, a liquid containing 5% curcumin solution, 45% glycerol, and 50% ethanol) with physiological saline can be used. […] Accordingly, the nucleus surrounded by the cytoplasm is clearly visualized, making it clearer to be analyzed.

[8] = isolated large intestine, stained from serosa side
[9] = normal large intestine, five-layer structure
[10] = normal mucosal tissue of large intestine, FIG. 3
[11] = stained and photographed from luminal side

T1 sequence (P40763 whole entry, species assumed): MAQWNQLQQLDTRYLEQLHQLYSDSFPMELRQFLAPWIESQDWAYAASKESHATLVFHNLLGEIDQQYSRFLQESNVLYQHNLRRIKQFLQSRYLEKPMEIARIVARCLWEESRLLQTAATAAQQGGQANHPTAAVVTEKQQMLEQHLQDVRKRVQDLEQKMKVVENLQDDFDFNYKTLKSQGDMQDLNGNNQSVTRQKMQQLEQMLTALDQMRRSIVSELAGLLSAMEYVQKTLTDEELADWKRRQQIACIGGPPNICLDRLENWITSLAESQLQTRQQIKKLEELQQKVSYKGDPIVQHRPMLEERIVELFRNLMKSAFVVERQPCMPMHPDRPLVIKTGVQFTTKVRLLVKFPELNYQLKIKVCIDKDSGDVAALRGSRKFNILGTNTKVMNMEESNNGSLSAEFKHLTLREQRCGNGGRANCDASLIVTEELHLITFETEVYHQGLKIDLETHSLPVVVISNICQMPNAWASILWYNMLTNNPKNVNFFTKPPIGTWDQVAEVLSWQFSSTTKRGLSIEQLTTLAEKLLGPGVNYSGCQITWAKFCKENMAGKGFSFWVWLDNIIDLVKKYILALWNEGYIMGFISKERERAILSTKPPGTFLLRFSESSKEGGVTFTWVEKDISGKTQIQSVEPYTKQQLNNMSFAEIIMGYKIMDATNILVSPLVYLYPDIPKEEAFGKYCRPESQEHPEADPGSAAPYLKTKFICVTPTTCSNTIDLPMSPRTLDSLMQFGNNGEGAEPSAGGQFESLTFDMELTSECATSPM

Compound: COc1cc(/C=C/C(=O)CC(=O)/C=C/c2ccc(O)c(OC)c2)ccc1O [curcumin]
- staining of cytoplasm of olfactory receptor neurons and cilia having odor receptors [1]: stained positively
- staining of nucleus of olfactory receptor neurons [1]: not stained
- staining of nuclei of sensory neuronal cells of taste bud (taste bud): not stained
- structures stained in double staining ([2]; isolated large intestine): cytoplasm of epithelial and glandular cells
- staining of nerve fibers of Auerbach's plexus [2, 8]: moderately
- staining of perikaryon of Auerbach's plexus [2, 8]: strongly
- staining of Auerbach's plexus inside muscle layer [2, 9]: strongly positively
- staining of epithelial and glandular cells in epithelial and glandular layers (1) [2, 9]: strongly positively
- staining of the smooth muscle in muscle layer (4) [2, 9]: slightly positively
- staining of the smooth muscle in muscularis mucosae (2) [2, 9]: moderately positively; also recorded: severely positively
- staining of the cytoplasm of epithelial cells and gland cells [2, 10]: stained
- staining of the nucleus of epithelial cells and gland cells [2, 10]: not stained
- staining of the nucleus in perikaryon of Meissner's plexus ([2]; stained from serosa side): does not stain the nucleus
- staining of the nucleus in perikaryon of Auerbach's plexus ([2]; stained from serosa side, high magnification): does not stain the nucleus
- staining of cancer cells relative to surrounding or normal tissue ([3]; cancer cells versus surrounding tissue / normal cells): darker than surrounding tissue
- staining of cytoplasm of cancer cells [3, 11]: severely positively
- staining of nuclei of cancer cells [3, 11]: negatively
- fluorescent color [4]: green
- staining of myelin sheath [5]: can stain myelin sheath
- signal of the cytoplasm of optic nerve and small/large ganglion cells [6]: positive signal
- signal of the nucleus of optic nerve and small/large ganglion cells [6]: negative signal
- staining of cells that overexpress STAT3 (STAT3): can stain cells that overexpress STAT3
- identification of the normal part and malformation part of Auerbach's plexus [7]: clearly identified

Compound: CCN(CC)c1ccc2c(-c3ccc(S(=O)(=O)[O-])cc3S(=O)(=O)[O-])c3ccc(=[N+](CC)CC)cc-3oc2c1.[Na+] [Red #106]
- structures stained in double staining ([2]; isolated large intestine): connective tissue, capillaries and cell membranes of epithelial and glandular cells
- staining of the network of capillaries surrounding the glandular structures of epithelial and glandular layers (1) [2, 9]: strongly positively
- staining of the smooth muscle in muscle layer (4) [2, 9]: slightly positively; also recorded: strongly stained; also recorded: strongly positively
- staining of the smooth muscle in muscularis mucosae (2) [2, 9]: slightly positively; also recorded: moderately positively
- staining of the wall of a thick blood vessel inside muscle layer [2, 9]: strongly positively; also recorded: strongly stained
- fluorescent color [4]: red

Compound: O=C1OC2(c3ccccc31)c1cc(I)c(O)c(I)c1Oc1c2cc(I)c(O)c1I [Red #3, erythrosine]
- staining of cells that overexpress RAS (RAS): can stain
- fluorescent color [4]: red
